Results: patent US11661420B2 (NANJING HEPO PHARMACEUTICAL CO., LTD, priority 2019, dated 2023)
pEC50: −log10 of the molar value.

Experiments:
[1] = system: HBV surface antigen (HBsAg); test: Cryopreserved PHH assay, ELISA of hepatitis B surface antigen in culture supernatant; format: cell-based, type D HBV in human primary hepatocytes (PHH); details: Hepatitis B virus, 240 h, read-out: HBsAg EC50
Procedure: (§1) The inhibitory effect of the compounds on HBV was evaluated by real-time quantitative qPCR assay (real time-qPCR) to detect the HBV DNA content in human primary hepatocytes (PHH) culture supernatant, and ELISA to detect the hepatitis B surface antigen and e antigen content, the EC50 value of the compounds was used as an indicator; meanwhile, the cell viability was detected by CellTiter-Glo to evaluate the toxicity of the compounds to cells.
(§2) 3.1. On day 0, PHH (1.32×10^5 cells/well) was seeded into a 48-well plate and incubated overnight at 37° C., 5% CO2.
(§3) 3.2. On the first day, PHH was infected with type D HBV (concentrated from HepDE19 cell culture supernatant).
(§4) 3.3 On the second day, the test compound was diluted to 7 concentrations with 5-fold serial dilution. Reference compound Peg-IFN-α 2a, 7 concentrations with 3-fold serial dilution. Compounds with different concentrations were added to the culture wells, and the wells were double-duplicated wells. The final concentration of DMSO in the culture medium was 2%.
(§5) 3.4 On the 4th, 6th, and 8th day, the culture medium was replaced by a fresh culture medium containing the compound.
(§6) 3.5 After collecting the culture supernatant from the culture well on the 10th day, the cell viability was tested with CellTiter-Glo. A portion of the culture supernatant was collected for ELISA determination to detect the content of hepatitis B virus surface antigen and e antigen; a portion of the sample was collected for extract DNA using a high-throughput DNA purification kit, referring to the product instructions for the specific steps.
(§7) 3.7 ELISA determination of hepatitis B virus surface antigen and e antigen
(§8) The specific steps can be referred to the product manual, the steps are briefly described as follows: 50 μL of sample and standard was added to the reaction plate respectively, 50 μL of enzyme conjugate was added to each well, the mixture was shaken and mixed well, then kept in a warm bath at 37° C. for 60 minutes, the plate was washed with washing solution for 5 times, 50 μL of the luminescent substrate was added to each well, the mixture was mixed well, and the reaction was carried out in the dark at room temperature for 10 minutes, and finally the chemiluminescence intensity was detected with the instrument.
(§9) Calculation of the inhibition percentage of HBV DNA, HBV surface antigen and e antigen. % Inh.=(1−value of the sample/value of DMSO control)×100.

HBV DNA = test: Cryopreserved PHH assay, real-time qPCR of HBV DNA in culture supernatant; format: cell-based, type D HBV in human primary hepatocytes (PHH); details: Hepatitis B virus, 240 h; PHH infected with type D HBV, supernatant day 10, qPCR
Procedure: as §1, §2, §3, §4, §5, §6
3.6 Quantitative PCR to detect the content of HBV DNA
The qPCR reaction mixture, sample and standard were added to the 384 well reaction plate. PCR reactions: 95° C., 10 min; 95° C., 15 sec, 60° C., 1 min, 40 cycles.
as §9

[2] = Cryopreserved PHH assay, cell viability by CellTiter-Glo; format: cell-based; details: human, cryopreserved primary human hepatocytes (PHH), day 10, CellTiter-Glo
Procedure: as §1, §2, §4, §5, §6
Calculation of the percentage of cell viability: % viability=the luminescence value of the sample/the luminescence value of the DMSO control×100.

HBV e antigen (HBeAg) = test: Cryopreserved PHH assay, ELISA of hepatitis B e antigen in culture supernatant; format: cell-based, type D HBV in human primary hepatocytes (PHH); details: Hepatitis B virus, 240 h, read-out: HBeAg EC50
Procedure: as §1, §2, §3, §4, §5, §6, §7, §8, §9

Structure (SMILES) | pEC50 [1] | pEC50 (HBV DNA) | CC50 at 8 days [2] [nM] | pEC50 (HBV e antigen (HBeAg))
CC1(C)N=C(c2nc(-c3ccc(C(=O)O)cc3)co2)Nc2c(Cl)cccc21 [Compound I-53, 4-(2-(8-chloro-4,4-dimethyl-1,4-dihydroquinazolin-2-yl)oxazol-4-yl)benzoic acid] | 6.94 | 8.08 | > 50000 | 8.25
CC1(C)N=C(c2nc(-c3ccc(C(=O)O)nc3)cs2)Nc2ccccc21 [Compound I-35, 5-(2-(4,4-dimethyl-1,4-dihydroquinazolin-2-yl)thiazol-4-yl)pyridin-2-carboxylic acid] | 5.99 | 5.95 | > 50000 | 6.47
CC1(C)N=C(c2nc(-c3ccc(C(=O)O)cc3)cs2)Oc2ccccc21 [Compound I-68, 4-(2-(4,4-dimethyl-4H-benzo[e] [1,3]oxazin-2-yl)thiazol-4-yl)benzoic acid] | 6.24 | 7.09 | > 50000 | 7.77
CC1N=C(c2nc(-c3ccc(C(=O)O)cc3)cs2)Nc2c(Cl)cccc21 (stereo not shown) [Compound I-2, 4-(2-(8-chloro-4-methyl-1,4-dihydroquinazolin-2-yl)thiazol-4-yl)benzoic acid] | 7.87 | 8.19 | > 50000 | 8.27
CC1(C)N=C(c2nc(-c3cccc(C(=O)O)c3)cs2)Nc2c(Cl)cccc21 [Compound I-36, 3-(2-(8-chloro-4,4-dimethyl-1,4-dihydroquinazolin-2-yl)thiazol-4-yl)benzoic acid] | < 4.30 | 5.00 | > 50000 | < 4.30
CC1(C)N=C(c2nc(-c3ccc(C(=O)O)cc3)cs2)Nc2c(C(F)(F)F)cccc21 [Compound I-23, 4-(2-(4,4-dimethyl-8-trifluoromethyl-1,4-dihydroquinazolin-2-yl)thiazol-4-yl)benzoic acid] | < 4.30 | 8.08 | > 50000 | 8.70
O=C(O)c1ccc(-c2csc(C3=NC4(CC4)c4cccc(Cl)c4N3)n2)cc1 [Compound I-5, 4-(2-(8′-chloro-1′H-spiro[cyclopropyl-1,4′-quinazolin]-2′-yl)thiazol-4-yl)benzoic acid] | 6.98 | 7.96 | > 50000 | 8.05
CC1(C)N=C(c2ccc(-c3ccc(C(=O)O)cc3)cc2F)Nc2c(Cl)cccc21 [Compound I-46, 4′-(8-chloro-4,4-dimethyl-1,4-dihydroquinazolin-2-yl)-3′-fluoro-[1.1′-biphenyl]-4-carboxylic acid] | < 4.30 | 4.31 | > 50000 | 5.20
CC1(C)N=C(c2nc(-c3ccc(C(=O)O)cn3)cs2)Nc2ccccc21 [Compound I-34] | 6.23 | 6.77 | > 50000 | 7.18
CCOC(=O)c1ccc(-c2csc(C3=NC(C)(C)c4ccccc4N3)n2)cc1 [Compound I-73] | 6.94 | 7.87 | > 50000 | 7.92
CC1(C)N=C(c2nc(-c3ccc(C(=O)O)cc3)cs2)Nc2c(Cl)cccc21 [Compound I-4, 4-(2-(8-chloro-4,4-dimethyl-1,4-dihydroquinazolin-2-yl)thiazol-4-yl)benzoic acid] | 7.99 | 8.38 | > 50000 | 8.49
CC1(C)N=C(c2nc(-c3ccc(C(=O)O)cc3)cs2)Nc2c(F)cc(F)cc21 [Compound I-70, 4-(2-(6,8-difluoro-4,4-dimethyl-1,4-dihydroquinazolin-2-yl)thiazol-4-yl)benzoic acid] | 7.39 | 8.15 | > 50000 | 8.28
COc1cc(-c2csc(C3=NC(C)(C)c4ccccc4N3)n2)ccc1C(=O)O [Compound I-40, 4-(2-(4,4-dimethyl-1,4-dihydroquinazolin-2-yl)thiazol-4-yl)-2-flurobenzoic acid] | 6.52 | 7.51 | > 50000 | 7.47
